Legend:
[1] = Cytotoxicity against […] cells by MTT assay; type: cell-based
[2] = tested on: Bovine viral diarrhea virus 1; assay: Antiviral activity against BVDV infected in […] cells assessed as inhibition of virus-induced cytopathogenicity by MTT assay; type: functional, organism-based; conditions: Bovine viral diarrhea virus isolates and strains
[3] = tested on: Bovine viral diarrhea virus 1; assay: Antiviral activity against BVDV bearing mutant RdRp infected in […] cells assessed as inhibition of virus-induced cytopathogenicity by MTT assay; type: functional, organism-based; conditions: Bovine viral diarrhea virus isolates and strains
[4] = Inhibition of BVDV RNA dependent NS5B polymerase; set-up: species or system Bovine viral diarrhea virus 1
[5] = Selectivity index, ratio of CC50 for […] cells to EC50 for BVDV
[6] = Inhibition of hepatitis C virus RNA dependent NS5B polymerase; set-up: species or system Hepacivirus hominis

| Structure (SMILES) | EC50 [2] | further results |
| --- | --- | --- |
| CC(=O)Nc1ccc(-c2nc3cc([N+](=O)[O-])ccc3[nH]2)cc1 | 0.8 µM | CC50 [1]: > 100 µM; EC50 [3]: > 100 µM |
| CC(=O)Nc1ccc(-c2nc3cc(Cl)c(Cl)cc3[nH]2)cc1 | 1 µM | CC50 [1]: 58 µM; EC50 [3]: > 100 µM |
| Brc1cccc(/N=N/C2=C3CCCCN3CCC2)c1 | > 10 µM |  |
| Brc1ccc(/N=N/C2=C3CCCCN3CCC2)cc1 | > 59 µM |  |
| FC(F)(F)c1cccc(/N=N/C2=C3CCCCN3CCC2)c1 | > 8 µM |  |
| O=[N+]([O-])c1cccc(/N=N/C2=C3CCCCN3CCC2)c1 | > 100 µM |  |
| O=[N+]([O-])c1ccc(/N=N/C2=C3CCCCN3CCC2)cc1 | 86 µM |  |
| Clc1ccc(/N=N/C2=C3CCCCN3CCC2)cc1Cl | > 30 µM |  |
| FC(F)(F)c1cc(/N=N/C2=C3CCCCN3CCC2)cc(C(F)(F)F)c1 | > 31 µM |  |
| Fc1ccc(/N=N/C2=C3CCCCN3CCC2)cc1C(F)(F)F | > 100 µM |  |
| FC(F)(F)c1cc(/N=N/C2=C3CCCCN3CCC2)ccc1Cl | > 35 µM |  |
| FC(F)(F)c1cc(/N=N/C2=C3CCCCN3CCC2)ccc1Br | 61 µM |  |
| O=[N+]([O-])c1cc(/N=N/C2=C3CCCCN3CCC2)ccc1Cl | > 18 µM |  |
| c1ccc2c(/N=N/C3=C4CCCCN4CCC3)cccc2c1 | 6 µM |  |
| Fc1ccc(/N=N/C2=C3CCCCN3CCC2)cc1 | > 56 µM |  |
| Clc1ccccc1/N=N/C1=C2CCCCN2CCC1 | > 100 µM |  |
| Clc1cccc(/N=N/C2=C3CCCCN3CCC2)c1 | > 20 µM |  |
| Clc1ccc(/N=N/C2=C3CCCCN3CCC2)cc1 | > 60 µM |  |
| Clc1ccc(/N=N/C2=C3CCCN3CCC2)cc1 | > 30 µM |  |
| O=[N+]([O-])c1cccc(/N=N/C2=C3CCCN3CCC2)c1 | > 68 µM |  |
| Clc1ccc(/N=N/C2=C3CCCN3CCC2)cc1Cl | > 67 µM |  |
| FC(F)(F)c1cc(/N=N/C2=C3CCCN3CCC2)ccc1Cl | > 21 µM |  |

| Structure (SMILES) | EC50 [2] | further results |
| --- | --- | --- |
| c1ccc2c(/N=N/C3=C4CCCN4CCC3)cccc2c1 | 3.5 µM |  |
| c1ccc2c(/N=N/C3=C4CCCN4CCC3)nncc2c1 | > 100 µM |  |
| CN1CCC/C1=C\N=N\c1ccc([N+](=O)[O-])cc1 | 19 µM |  |
| Clc1ccc(/N=N/C=C2\CCCN2Cc2ccccc2)cc1Cl | > 79 µM |  |
| Nc1ccc(-c2nc3cc([N+](=O)[O-])ccc3[nH]2)cc1 | 1.5 µM | CC50 [1]: 79 µM; EC50 [3]: > 79 µM |
| COc1ccc(/N=N/C=C2\CCCN2C)cc1 | 18 µM |  |
| CN1CCC/C1=C\N=N\c1ccc(Cl)c(Cl)c1 | 16 µM |  |
| CN1C=C(/N=N/c2cccc([N+](=O)[O-])c2)CCC1 | 0.8 µM | IC50 [4]: 32 µM; CC50 [1]: > 100 µM; Ratio CC50/EC50 [5]: 125; IC50 [6]: 30 µM |
| CN1C=C(/N=N/c2ccccc2)CCC1 | > 100 µM |  |
| CN1C=C(/N=N/c2ccccc2Cl)CCC1 | 100 µM |  |
| CN1CCC/C1=C\N=N\c1ccc(F)cc1 | 18 µM |  |
| CN1C=C(/N=N/c2c(F)c(F)c(F)c(F)c2F)CCC1 | > 100 µM |  |
| Cc1ccc(/N=N/C2=CN(C)CCC2)cc1 | > 100 µM |  |
| CN1CCC/C1=C\N=N\c1ccc(Cl)cc1 | 21 µM |  |
| CN1C=C(/N=N/c2ccc(Cl)c(Cl)c2)CCC1 | 7 µM |  |
| CN1CCC/C1=C\N=N\c1cccc(Br)c1 | 9 µM |  |
| CN1CCC/C1=C\N=N\c1ccc(Br)cc1 | 11 µM |  |
| CN1CCC/C1=C\N=N\c1cccc(C(F)(F)F)c1 | 21 µM |  |
| Clc1ccc(/N=N/C=C2\CCCN2Cc2ccccc2)cc1 | > 18 µM |  |
| Cc1ccc(/N=N/C=C2\CCCN2Cc2ccccc2)cc1 | > 22 µM |  |
| CN1C=C(/N=N/c2cccc(C(F)(F)F)c2)CCC1 | 90 µM |  |
| CN1C=C(/N=N/c2cccc(Cl)c2)CCC1 | 12 µM |  |

| Structure (SMILES) | EC50 [2] | further results |
| --- | --- | --- |
| CN1C=C(/N=N/c2ccc(Cl)cc2)CCC1 | > 58 µM |  |
| CN1C=C(/N=N/c2cccc3ccccc23)CCC1 | 5 µM | IC50 [4]: 28 µM; CC50 [1]: > 100 µM; IC50 [6]: 55 µM; EC50 [3]: > 100 µM |
| CN1CCC/C1=C\N=N\c1c(F)c(F)c(F)c(F)c1F | > 100 µM |  |
| CN1C=C(/N=N/c2cccc(Br)c2)CCC1 | 19 µM |  |
| CN1C=C(/N=N/c2ccc(Br)cc2)CCC1 | 60 µM |  |
| CN1CCC/C1=C\N=N\c1ccccc1 | 10 µM |  |
| CN1C=C(/N=N/c2ccc(F)c(C(F)(F)F)c2)CCC1 | > 100 µM |  |
| CN1C=C(/N=N/c2ccc(F)cc2)CCC1 | > 48 µM |  |
| CN1C=C(/N=N/c2ccc(Cl)c(C(F)(F)F)c2)CCC1 | > 28 µM |  |
| CN1C=C(/N=N/c2ccc(Cl)c([N+](=O)[O-])c2)CCC1 | > 61 µM |  |
| CN1CCC/C1=C\N=N\c1ccc(Br)c(C(F)(F)F)c1 | 46 µM |  |
| CN1CCC/C1=C\N=N\c1cccc([N+](=O)[O-])c1 | 5.5 µM |  |
| Cc1ccc(/N=N/C=C2\CCCN2C)cc1 | 20 µM |  |
| CN1CCC/C1=C\N=N\c1cc(C(F)(F)F)cc(C(F)(F)F)c1 | > 36 µM |  |
| CN1C=C(/N=N/c2cc(C(F)(F)F)cc(C(F)(F)F)c2)CCC1 | > 64 µM |  |
| CN1C=C(/N=N/c2ccc([N+](=O)[O-])cc2)CCC1 | 11 µM |  |
| CN1C=C(/N=N/c2ccc(Br)c(C(F)(F)F)c2)CCC1 | 40 µM |  |
| FC(F)(F)c1cc(/N=N/C=C2\CCCN2Cc2ccccc2)ccc1Cl | > 14 µM |  |
| C(/N=N/c1ccccc1)=C1/CCCN1Cc1ccccc1 | > 74 µM |  |
| CN1CCC/C1=C\N=N\c1ccc(F)c(C(F)(F)F)c1 | 100 µM |  |
| C[C@@]1(O)[C@H](O)[C@@H](CO)O[C@H]1n1cnc2c(=O)[nH]c(N)nc21 [2'-B-METHYL-GUANOSINE] | 1.7 µM |  |
